Test results published in ChEMBL document CHEMBL1150673, “Briarellins J-P and polyanthellin A: new eunicellin-based diterpenes from the gorgonian coral Briareum polyanthes and their antimalarial activity” (J Nat Prod, 2003).
In brackets after ≈: the same amount, converted by molar mass. Activity calls are given as the source filed them. The calls are words filed in the database; no cut-off is given here.

Assays:
Plasmodium falciparum = assay: Antimalarial activity as Plasmodium falciparum DNA by PicoGreen microfluorimetry; assay type: functional, organism-based
[1] = target: Cyclin-dependent kinase 1/cyclin B1 (Homo sapiens) (UniProt P06493+P14635); assay: Inhibition of Cdc2/cyclin B; assay type: protein-complex assay
Chain of Cyclin-dependent kinase 1/cyclin B1 (Homo sapiens) (P06493 whole entry, looked up): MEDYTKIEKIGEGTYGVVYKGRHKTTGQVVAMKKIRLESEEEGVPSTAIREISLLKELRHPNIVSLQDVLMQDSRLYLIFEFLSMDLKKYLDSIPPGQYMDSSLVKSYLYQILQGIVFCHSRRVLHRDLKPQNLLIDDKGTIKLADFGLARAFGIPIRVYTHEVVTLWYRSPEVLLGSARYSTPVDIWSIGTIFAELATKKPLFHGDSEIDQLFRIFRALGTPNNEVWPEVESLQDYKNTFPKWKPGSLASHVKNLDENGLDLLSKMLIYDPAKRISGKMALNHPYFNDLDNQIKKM
Chain of Cyclin-dependent kinase 1/cyclin B1 (Homo sapiens) (P14635 whole entry, looked up): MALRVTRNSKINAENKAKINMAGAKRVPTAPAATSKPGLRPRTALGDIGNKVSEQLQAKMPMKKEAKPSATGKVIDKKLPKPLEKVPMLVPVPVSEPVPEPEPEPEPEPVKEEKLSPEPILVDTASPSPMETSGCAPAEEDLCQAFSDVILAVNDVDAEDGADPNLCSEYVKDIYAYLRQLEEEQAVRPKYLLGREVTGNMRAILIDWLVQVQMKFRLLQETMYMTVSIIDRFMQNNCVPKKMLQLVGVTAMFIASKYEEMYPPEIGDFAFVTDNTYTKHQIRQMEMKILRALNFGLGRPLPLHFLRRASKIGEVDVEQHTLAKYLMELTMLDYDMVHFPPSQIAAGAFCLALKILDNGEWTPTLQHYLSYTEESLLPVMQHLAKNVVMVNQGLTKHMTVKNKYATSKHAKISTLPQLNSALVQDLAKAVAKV

[2] = system: Mycobacterium tuberculosis; assay: Antitubercular activity against Mycobacterium tuberculosis H37Rv at 6.25 ug/ml; assay type: functional, organism-based
[3] = system: M-phase inducer phosphatase (Cdc25); assay: Inhibition of Cdc25
MCF = assay: Cytotoxicity against human MCF cells at 100 uM; assay type: functional, cell-based
NCI-H460 = assay: Cytotoxicity against human NCI-H460 cells at 100 uM; assay type: functional, cell-based
SF-268 = assay: Cytotoxicity against human SF268 cells at 100 uM; assay type: functional, cell-based

Row | Compound | IC50 (Plasmodium falciparum) [µg/mL] | Activity [2] | further results
1 | CC(C)[C@@H]1CC[C@](C)(O)[C@H]2C3C[C@@]4(C)CCC[C@](C)(O4)C(O3)[C@@H]12 | 16 (≈ 49.6 µM) |  | 
2 | CO[C@@H]1CC[C@]2(C)OC(=O)[C@H](C)C3CC[C@@](C)(OC(C)=O)[C@H]4C(C[C@@]1(C)O)OC2[C@@H]34 (some centres not stated) |  | inactive | Activity [1]: inactive; Activity [3]: inactive
3 | C=C1CC2OC3[C@H]4C(CC[C@@](C)(OC(=O)CCC)[C@@H]24)[C@@H](C)C(=O)O[C@@]3(C)CC[C@H]1OO (some centres not stated) [BRIARELLIN D HYDROPEROXIDE] | 9 (≈ 20.6 µM) |  | 
4 | C=C1CC2OC3[C@H]4C(CC[C@@](C)(OC(=O)CCC)[C@@H]24)[C@@H](C)C(=O)O[C@@]3(C)CC[C@H]1O (some centres not stated) [BRIARELLIN D] | 13 (≈ 30.9 µM) | inactive | Activity [1]: inactive; Activity (MCF): inactive; Activity (NCI-H460): inactive; Activity [3]: inactive; Activity (SF-268): inactive
5 | CC(=O)O[C@]1(C)CCC2[C@@H]3C4OC(C/C(C)=C\CC[C@]4(C)OC(=O)[C@@H]2C)[C@@H]31 (some centres not stated) [BRIARELLIN J] | > 50 |  | 
6 | C=C1CC2OC3[C@H]4C(CC[C@@](C)(OC(C)=O)[C@@H]24)[C@@H](C)C(=O)O[C@@]3(C)CC[C@H]1OO (some centres not stated) [BRIARELLIN K HYDROPEROXIDE] | 9 (≈ 22 µM) |  | 
7 | C=C1CC2OC3[C@H]4C(CC[C@@](C)(OC(C)=O)[C@@H]24)[C@@H](C)C(=O)O[C@@]3(C)CC[C@H]1O (some centres not stated) [BRIARELLIN K] | 15 (≈ 38.2 µM) | inactive | Activity [1]: inactive; Activity (MCF): inactive; Activity (NCI-H460): inactive; Activity [3]: inactive; Activity (SF-268): inactive
8 | C=C1CC2OC3[C@H]4C(CC[C@@](C)(OC(=O)CCC)[C@@H]24)[C@@H](C)C(=O)O[C@@]3(C)CC[C@H]1OC(C)=O (some centres not stated) [BRIARELLIN L] | 8 (≈ 17.3 µM) |  | 
9 | CC(=O)O[C@]1(C)CCC2[C@@H]3C4OC(C[C@@](C)(O)[C@H](O)CC[C@]4(C)OC(=O)[C@@H]2C)[C@@H]31 (some centres not stated) [BRIARELLIN M] | 22 (≈ 53.6 µM) |  | 
10 | CCCC(=O)O[C@]1(C)CCC2[C@@H]3C4OC(C[C@@](C)(O)[C@H](O)CC[C@]4(C)OC(=O)[C@@H]2C)[C@@H]31 (some centres not stated) [BRIARELLIN O] | 24 (≈ 54.7 µM) |  | 
11 | CCCC(=O)O[C@]1(C)CCC2[C@@H]3C4OC(C[C@@](C)(O)[C@H](OC)CC[C@]4(C)OC(=O)[C@@H]2C)[C@@H]31 (some centres not stated) [BRIARELLIN P] | 14 (≈ 30.9 µM) |  | 
12 | CC(=O)O[C@@]1(C)CC[C@@H](C(C)C)[C@@H]2C3OC(C[C@@]4(C)CCC[C@]3(C)O4)[C@@H]21 [POLYANTHELLIN A] | 16 (≈ 43.9 µM) | inactive | 
